# Experimental data published in ChEMBL document CHEMBL1201862, “PubChem BioAssay data set” (2004).
#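 A five-concentration, 48-hour dose response in 96-well plates underlies each endpoint, interpolated linearly between surrounding concentrations. GI50 is the concentration that inhibits growth by half.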 Activity calls are given as the source filed them. Cut-off read from the data, not from the text of the source: active = GI50 up to about 1.1 µM and inactive = higher. Starred links: 1 amine or outer side, 2 acyl side, 3 side chain; linkers in the order of their positions; H or OH if unused. Non-standard residues stand in square brackets, D forms with d. Residues, ends and D or L forms follow the SMILES beside them. X35 = C=CCC(O[*:1])C(=O)[*:2]; NMeV = CN[CH](C(=O)O)C(C)C; NMeA = CN[CH](C)C(=O)O; βAla = NCCC(=O)O
# Experiments:
# Assay in all cases: NCI tumour cell line growth inhibition, 48 h
# 786-0 = test system: 786-0
# A549 = test system: A549
# ACHN = test system: ACHN
# BT-549 = test system: BT-549
# CAKI-1 = test system: CAKI-1
# CCRF-CEM = test system: CCRF-CEM
# COLO 205 = test system: COLO 205
# DU-145 = test system: DU-145
# EKVX = test system: EKVX
# HCC 2998 = test system: HCC 2998
# HCT-116 = test system: HCT-116
# HCT-15 = test system: HCT-15
# HL-60 = test system: HL-60
# HOP-62 = test system: HOP-62
# HOP-92 = test system: HOP-92
# HT-29 = test system: HT-29
# Hs-578T = test system: Hs-578T
# IGROV-1 = test system: IGROV-1
# KM12 = test system: KM12
# LOX IMVI = test system: LOX IMVI
# M14 = test system: M14
# MCF7 = test system: MCF7
# MDA-MB-231 = test system: MDA-MB-231
# MDA-MB-435 = test system: MDA-MB-435
# MDA-N = test system: MDA-N
# MOLT-4 = test system: MOLT-4
# NCI-H23 = test system: NCI-H23
# NCI-H460 = test system: NCI-H460
# NCI-H522 = test system: NCI-H522
# NCI/ADR-RES = test system: NCI/ADR-RES
# OVCAR-3 = test system: OVCAR-3
# OVCAR-4 = test system: OVCAR-4
# OVCAR-5 = test system: OVCAR-5
# OVCAR-8 = test system: OVCAR-8
# PC-3 = test system: PC-3
# RPMI-8226 = test system: RPMI-8226
# SF-268 = test system: SF-268
# SF-295 = test system: SF-295
# SF-539 = test system: SF-539
# SK-MEL-28 = test system: SK-MEL-28
# SK-MEL-2 = test system: SK-MEL-2
# SK-MEL-5 = test system: SK-MEL-5
# SN12C = test system: SN12C
# SNB-19 = test system: SNB-19
# SNB-75 = test system: SNB-75
# SR = test system: SR
# SW-620 = test system: SW-620
# T47D = test system: T47D
# TK-10 = test system: TK-10
# U-251 = test system: U-251
# UACC-257 = test system: UACC-257
# UACC-62 = test system: UACC-62
# UO-31 = test system: UO-31
# A498 = test system: A498
# K562 = test system: K562
# Malme-3M = test system: Malme-3M
# NCI-H226 = test system: NCI-H226
# RXF 393 = test system: RXF 393
# SK-OV-3 = test system: SK-OV-3
structure (smiles),measurement,setting,value
C=CCC1OC(=O)CCNC(=O)C(C)N(C)C(=O)C(C(C)C)N(C)C(=O)C(C(C)CC)NC(=O)C2CCCN2C1=O (stereo not drawn) (cyclo([X35]PI[NMeV][NMeA][βAla]); configuration not given here),GI50,786-0,4.61 µM (inactive)
same,GI50,A549,9.84 µM (inactive)
same,GI50,ACHN,18.4 µM (inactive)
same,GI50,BT-549,32 µM (inactive)
same,GI50,CAKI-1,81.5 µM (inactive)
same,GI50,CCRF-CEM,3.1 µM (inactive)
same,GI50,COLO 205,> 100 µM (inactive)
same,GI50,DU-145,44.9 µM (inactive)
same,GI50,EKVX,3.23 µM (inactive)
same,GI50,HCC 2998,2.25 µM (inactive)
same,GI50,HCT-116,3.68 µM (inactive)
same,GI50,HCT-15,23.2 µM
same,GI50,HL-60,2.56 µM (inactive)
same,GI50,HOP-62,10.2 µM (inactive)
same,GI50,HOP-92,21.7 µM (inactive)
same,GI50,HT-29,3.91 µM (inactive)
same,GI50,Hs-578T,91.6 µM (inactive)
same,GI50,IGROV-1,7.06 µM (inactive)
same,GI50,KM12,10.8 µM (inactive)
same,GI50,LOX IMVI,1.85 µM (inactive)
same,GI50,M14,30.5 µM (inactive)
same,GI50,MCF7,> 100 µM (inactive)
same,GI50,MDA-MB-231,1.62 µM (inactive)
same,GI50,MDA-MB-435,4.22 µM (inactive)
same,GI50,MDA-N,> 100 µM (inactive)
same,GI50,MOLT-4,2.11 µM (inactive)
same,GI50,NCI-H23,33.2 µM (inactive)
same,GI50,NCI-H460,3.66 µM (inactive)
same,GI50,NCI-H522,16 µM (inactive)
same,GI50,NCI/ADR-RES,> 100 µM (inactive)
same,GI50,OVCAR-3,2.16 µM (inactive)
same,GI50,OVCAR-4,66.8 µM (inactive)
same,GI50,OVCAR-5,> 100 µM (inactive)
same,GI50,OVCAR-8,7.89 µM (inactive)
same,GI50,PC-3,5.85 µM (inactive)
same,GI50,RPMI-8226,2.62 µM (inactive)
same,GI50,SF-268,81.1 µM (inactive)
same,GI50,SF-295,4.08 µM (inactive)
same,GI50,SF-539,45.1 µM (inactive)
same,GI50,SK-MEL-28,42.7 µM (inactive)
same,GI50,SK-MEL-2,9.08 µM (inactive)
same,GI50,SK-MEL-5,2.44 µM (inactive)
same,GI50,SN12C,> 100 µM (inactive)
same,GI50,SNB-19,> 100 µM (inactive)
same,GI50,SNB-75,1.25 µM (inactive)
same,GI50,SR,2.58 µM (inactive)
same,GI50,SW-620,6.64 µM (inactive)
same,GI50,T47D,20.8 µM (inactive)
same,GI50,TK-10,> 100 µM (inactive)
same,GI50,U-251,49.5 µM (inactive)
same,GI50,UACC-257,9.44 µM (inactive)
same,GI50,UACC-62,2.68 µM (inactive)
same,GI50,UO-31,22.8 µM (inactive)
COC(=O)c1ccccc1C1CN=NC12Cc1cc(C)cc(C)c1C2=O (stereo not drawn),GI50,786-0,> 100 µM (inactive)
same,GI50,A498,2.9 µM (inactive)
same,GI50,A549,45.5 µM (inactive)
same,GI50,ACHN,88.7 µM (inactive)
same,GI50,BT-549,63.4 µM (inactive)
same,GI50,CAKI-1,36.8 µM (inactive)
same,GI50,CCRF-CEM,33.4 µM (inactive)
same,GI50,COLO 205,30.5 µM (inactive)
same,GI50,DU-145,> 100 µM (inactive)
same,GI50,EKVX,70 µM (inactive)
same,GI50,HCC 2998,46.9 µM (inactive)
same,GI50,HCT-116,44.1 µM (inactive)
same,GI50,HCT-15,17.3 µM
same,GI50,HL-60,22 µM (inactive)
same,GI50,HOP-62,> 100 µM (inactive)
same,GI50,HOP-92,26.9 µM (inactive)
same,GI50,HT-29,23.4 µM (inactive)
same,GI50,Hs-578T,86.3 µM (inactive)
same,GI50,IGROV-1,> 100 µM (inactive)
same,GI50,K562,40.5 µM (inactive)
same,GI50,KM12,29.9 µM (inactive)
same,GI50,LOX IMVI,20 µM (inactive)
same,GI50,M14,67.8 µM (inactive)
same,GI50,MCF7,27.5 µM (inactive)
same,GI50,MDA-MB-231,14.4 µM (inactive)
same,GI50,MDA-MB-435,36.4 µM (inactive)
same,GI50,MDA-N,57 µM (inactive)
same,GI50,MOLT-4,32.1 µM (inactive)
same,GI50,Malme-3M,97.9 µM (inactive)
same,GI50,NCI-H226,99.3 µM (inactive)
same,GI50,NCI-H23,15.1 µM (inactive)
same,GI50,NCI-H460,45.5 µM (inactive)
same,GI50,NCI-H522,13.3 µM (inactive)
same,GI50,NCI/ADR-RES,38.4 µM (inactive)
same,GI50,OVCAR-3,96.6 µM (inactive)
same,GI50,OVCAR-4,65.3 µM (inactive)
same,GI50,OVCAR-5,> 100 µM (inactive)
same,GI50,OVCAR-8,> 100 µM (inactive)
same,GI50,PC-3,37.5 µM (inactive)
same,GI50,RXF 393,> 100 µM (inactive)
same,GI50,SF-268,> 100 µM (inactive)
same,GI50,SF-295,48.6 µM (inactive)
same,GI50,SF-539,> 100 µM (inactive)
same,GI50,SK-MEL-28,> 100 µM (inactive)
same,GI50,SK-MEL-2,> 100 µM (inactive)
same,GI50,SK-MEL-5,31.3 µM (inactive)
same,GI50,SK-OV-3,> 100 µM (inactive)
same,GI50,SN12C,83.2 µM (inactive)
same,GI50,SNB-19,> 100 µM (inactive)
same,GI50,SNB-75,23.1 µM (inactive)
same,GI50,SW-620,62.7 µM (inactive)
same,GI50,T47D,44.7 µM (inactive)
same,GI50,TK-10,60.4 µM (inactive)
same,GI50,U-251,64.1 µM (inactive)
same,GI50,UACC-257,34 µM (inactive)
same,GI50,UACC-62,75.5 µM (inactive)
same,GI50,UO-31,43 µM (inactive)
COc1cc(C2C(Cl)C(=O)N2c2ccc(Br)cc2)cc(I)c1O (stereo not drawn),GI50,786-0,> 100 µM (inactive)
same,GI50,A498,> 100 µM (inactive)
same,GI50,A549,42.4 µM (inactive)
same,GI50,ACHN,33.5 µM (inactive)
same,GI50,BT-549,45.1 µM (inactive)
same,GI50,CAKI-1,47.9 µM (inactive)
same,GI50,CCRF-CEM,26.4 µM (inactive)
same,GI50,COLO 205,> 100 µM (inactive)
same,GI50,DU-145,> 100 µM (inactive)
same,GI50,EKVX,20.7 µM (inactive)
same,GI50,HCT-116,40.3 µM (inactive)
same,GI50,HCT-15,23.8 µM
same,GI50,HL-60,34 µM (inactive)
same,GI50,HOP-62,37.4 µM (inactive)
same,GI50,HT-29,87.1 µM (inactive)
same,GI50,Hs-578T,59.6 µM (inactive)
same,GI50,IGROV-1,1.54 µM (inactive)
same,GI50,K562,7.21 µM (inactive)
same,GI50,KM12,37.3 µM (inactive)
same,GI50,LOX IMVI,6.04 µM (inactive)
same,GI50,M14,33 µM (inactive)
same,GI50,MCF7,87.9 µM (inactive)
same,GI50,MDA-MB-231,18.9 µM (inactive)
same,GI50,MDA-MB-435,47.5 µM (inactive)
same,GI50,MDA-N,36.6 µM (inactive)
same,GI50,MOLT-4,27.5 µM (inactive)
same,GI50,NCI-H23,52.8 µM (inactive)
same,GI50,NCI-H460,58.3 µM (inactive)
same,GI50,NCI-H522,18.7 µM (inactive)
same,GI50,NCI/ADR-RES,33.5 µM (inactive)
same,GI50,OVCAR-3,45.3 µM (inactive)
same,GI50,OVCAR-4,70.5 µM (inactive)
same,GI50,OVCAR-5,87.7 µM (inactive)
same,GI50,OVCAR-8,> 100 µM (inactive)
same,GI50,PC-3,> 100 µM (inactive)
same,GI50,RPMI-8226,33.1 µM (inactive)
same,GI50,SF-268,89.1 µM (inactive)
same,GI50,SF-295,35.4 µM (inactive)
same,GI50,SF-539,> 100 µM (inactive)
same,GI50,SK-MEL-2,65.8 µM (inactive)
same,GI50,SK-MEL-5,43.2 µM (inactive)
same,GI50,SK-OV-3,92.9 µM (inactive)
same,GI50,SN12C,68.5 µM (inactive)
same,GI50,SNB-19,73.5 µM (inactive)
same,GI50,SNB-75,37.8 µM (inactive)
same,GI50,SR,29.2 µM (inactive)
same,GI50,SW-620,> 100 µM (inactive)
same,GI50,T47D,23.8 µM (inactive)
same,GI50,TK-10,90.8 µM (inactive)
same,GI50,U-251,> 100 µM (inactive)
same,GI50,UACC-257,57 µM (inactive)
same,GI50,UACC-62,25.5 µM (inactive)
same,GI50,UO-31,31.1 µM (inactive)
